Test results reported in patent publication US9980943B2, “Methods of treating muscular dystrophy” (BOARD OF REGENTS OF THE NEVADA SYSTEM OF HIGHER EDUCATION, …, priority 2013, dated 2018).

Experiments:
Assay type in all cases: cell-based, mouse
[1] = system: α7 integrin (LacZ reporter in α7+/LacZ myotubes); test: Myotube α7 integrin FDG assay (Burkin assay in myotubes, 96-well); conditions: myotubes
[2] = system: β-galactosidase in CMV-LacZ C2C12 myoblasts; test: CMV-LacZ secondary screen in C2C12 myoblasts (β-Gal stabilizing assay); conditions: CMV-LacZ C2C12 myoblasts
In short: (§1)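 A secondary screen identifies compounds that stabilize β-gal independently of the native promoter, using CMV-LacZ C2C12 cells. Curves span 0.5–40 μM at six levels, in duplicate.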

[3] = system: α7 integrin (LacZ reporter in α7βgal+/− myoblasts); test: Myoblast α7+/LacZ integrin FDG assay (Burkin assay in myoblasts, 96-well); conditions: α7+/LacZ myoblasts, 96-well
[4] = system: β-galactosidase in CMV-LacZ C2C12 myotubes; test: CMV-LacZ secondary screen in C2C12 myotubes (β-Gal stabilizing assay); conditions: C2C12 CMV-LacZ myotubes, fold relative to DMSO
In short: as §1

| Compound | Burkin Assay in Myotubes, α7 integrin LacZ reporter signal relative to DMSO ([1]; 0.5 uM) | Burkin Assay in Myotubes, α7 integrin LacZ reporter signal relative to DMSO ([1]; 1 uM) | Burkin Assay in Myotubes, α7 integrin LacZ reporter signal relative to DMSO ([1]; 5 uM) | Burkin Assay in Myotubes, α7 integrin LacZ reporter signal relative to DMSO ([1]; 10 uM) | Burkin Assay in Myotubes, α7 integrin LacZ reporter signal relative to DMSO ([1]; 20 uM) | Burkin Assay in Myotubes, α7 integrin LacZ reporter signal relative to DMSO ([1]; 40 uM) | CMV-LACZ in Myoblasts (β-galactosidase activity relative to DMSO) ([2]; 0.5 uM) | CMV-LACZ in Myoblasts (β-galactosidase activity relative to DMSO) ([2]; 1 uM) | CMV-LACZ in Myoblasts (β-galactosidase activity relative to DMSO) ([2]; 5 uM) | CMV-LACZ in Myoblasts (β-galactosidase activity relative to DMSO) ([2]; 10 uM) | CMV-LACZ in Myoblasts (β-galactosidase activity relative to DMSO) ([2]; 20 uM) | CMV-LACZ in Myoblasts (β-galactosidase activity relative to DMSO) ([2]; 40 uM) | Burkin Assay in Myoblasts, signal relative to DMSO ([3]; 0.5 uM) | Burkin Assay in Myoblasts, signal relative to DMSO ([3]; 1 uM) | Burkin Assay in Myoblasts, signal relative to DMSO ([3]; 5 uM) | Burkin Assay in Myoblasts, signal relative to DMSO ([3]; 10 uM) | Burkin Assay in Myoblasts, signal relative to DMSO ([3]; 20 uM) | Burkin Assay in Myoblasts, signal relative to DMSO ([3]; 40 uM) | CMV-LACZ in Myotubes, signal relative to DMSO ([4]; 0.5 uM) | CMV-LACZ in Myotubes, signal relative to DMSO ([4]; 1 uM) | other results |
| --- | --- | --- | --- | --- | --- | --- | --- | --- | --- | --- | --- | --- | --- | --- | --- | --- | --- | --- | --- | --- | --- |
| Cc1noc(C)c1COc1ccc(C(=O)NCCc2ccccn2)cc1 [MLS001061374-01] | 1.058 | 1.092 | 1.004 | 1.181 | 0.732 | 0.8155 | 0.7117 | 1.1702 | 1.0601 | 0.9793 | 0.9744 | 1.1037 | 0.8477 | 0.8448 | 0.9826 | 1.169 | 0.873 | 0.6774 | 1.2568 | 1.1000 | CMV-LACZ in Myotubes, signal relative to DMSO ([4]; 5 uM): 1.1237; CMV-LACZ in Myotubes, signal relative to DMSO ([4]; 10 uM): 0.8498; CMV-LACZ in Myotubes, signal relative to DMSO ([4]; 20 uM): 1.1689; CMV-LACZ in Myotubes, signal relative to DMSO ([4]; 40 uM): 1.0489 |
| CCN(C(=O)c1ccc(S(=O)(=O)N(C)C)cc1)C(C)C(=O)Nc1ccc(C)cc1 (stereo not drawn) [MLS001170856-01] | 0.8296 | 0.7436 | 0.91 | 1.064 | 0.7763 | 1.029 | 0.7337 | 0.9857 | 0.7938 | 1.0004 | 0.8881 | 0.8389 | 0.95 | 0.8651 | 0.9744 | 1.244 | 0.9217 | 0.7133 | 1.1095 | 0.9105 | CMV-LACZ in Myotubes, signal relative to DMSO ([4]; 5 uM): 1.0074; CMV-LACZ in Myotubes, signal relative to DMSO ([4]; 10 uM): 1.0562; CMV-LACZ in Myotubes, signal relative to DMSO ([4]; 20 uM): 1.1518; CMV-LACZ in Myotubes, signal relative to DMSO ([4]; 40 uM): 0.8753 |
